Data taken from paper doi:10.1101/362830v1 (biorxiv, 2018).

Tests used:
Format in all cases: biochemical
D14 [1] = biological target: T1, D14 (Oryza sativa, UniProt Q10QA5); assay: inhibition of YLG hydrolysis, fluorescence
T1 sequence (Q10QA5 54-318): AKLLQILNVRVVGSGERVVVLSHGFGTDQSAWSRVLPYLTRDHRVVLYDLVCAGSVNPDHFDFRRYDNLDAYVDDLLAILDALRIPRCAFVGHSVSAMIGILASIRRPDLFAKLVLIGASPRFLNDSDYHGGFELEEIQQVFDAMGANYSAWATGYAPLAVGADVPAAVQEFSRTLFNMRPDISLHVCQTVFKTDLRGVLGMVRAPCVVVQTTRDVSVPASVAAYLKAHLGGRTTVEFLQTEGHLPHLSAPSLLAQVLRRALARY

D14 [2] = biological target: T1, D14; assay: fluorogenic hydrolysis, ex […] nm, em […] nm; conditions: read-out: Km^YLG; 100 mM PBS pH 7.3, 0.1% DMSO, 30 °C; no inhibitor
ShHTL7 = biological target: T2, ShHTL7 (Striga hermonthica, UniProt A0A0M3PNA2); assay: inhibition of YLG hydrolysis, fluorescence
T2 sequence (A0A0M3PNA2 1-271): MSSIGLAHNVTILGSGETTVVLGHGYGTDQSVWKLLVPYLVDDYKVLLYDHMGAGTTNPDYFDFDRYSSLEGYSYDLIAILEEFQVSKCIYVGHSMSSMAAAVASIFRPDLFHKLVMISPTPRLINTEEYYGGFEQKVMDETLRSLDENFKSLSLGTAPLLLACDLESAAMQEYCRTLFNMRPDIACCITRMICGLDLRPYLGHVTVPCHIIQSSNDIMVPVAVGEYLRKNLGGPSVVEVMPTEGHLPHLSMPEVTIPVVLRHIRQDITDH

IC50 (D14 [1]) | Km (D14 [2]) | IC50 (ShHTL7) | Structure (SMILES)
1.8 µM | – | – | O=C(N1CCc2ccccc21)n1ccnn1 [compound 26, indolin-1-yl(1H-1,2,3-triazol-1-yl)methanone]
– | 1.84 µM | – | CCOC(=O)c1ccccc1-c1c2ccc(=O)cc-2oc2cc(OC3C=C(C)C(=O)O3)ccc12 (centres unmarked) [Yoshimulactone Green]
7.9 µM | – | – | O=C(N1CCc2ccccc21)n1nccn1 [compound 26, indolin-1-yl(2H-1,2,3-triazol-2-yl)methanone]
5.8 µM | – | 0.15 µM | CC1=C[C@@H](O/C=C2/C(=O)O[C@@H]3c4ccccc4C[C@H]23)OC1=O [GR24]
